Measured values reported in US20230203060A1 (GENFLEET THERAPEUTICS (SHANGHAI) INC., priority 2020, published 2023).
Read-outs that look alike come from different tables or passages of the source.

Key:
Assay type in all cases: cell-based, human
[1] = tested on: KRAS G12C mutant NCI-H358 cells; assay: Cell proliferation inhibition experiment, 3D spheroid, CellTiter-Glo, NCI-H358; settings: NCI-H358 (KRAS G12C mutant) 3D spheroid, 5 days with compound, CellTiter-Glo, read-out: H358 IC50
Text: (§1) Raw materials and instruments: NCI-H358 purchased from ATCC; article number: CRL-5807; batch number: 70010825; A549 purchased from ATCC; article number: CCL-185; batch number: 70007820; RPMI1640 purchased from Gibco; article number: 11875-093; batch number: 2152748; F-12K purchased from Gibco; article number: 21127-022; batch number: 2185853; FBS purchased from Gibco; article number: 10099-141; batch number: 2109290CP; PS purchased from Gibco; article number: 15140-122; batch number: 2145451; Trypsin-EDTApurchased from Gibco; article number: 25200-072; batch number: 2085552; CellTiter Glo working solution purchased from Promega; article number: G9683; batch number: 398478; DMSO purchased from VWR AMRESCO; article number: 0231-500ML; batch number: 18C0656168; 384-well spheroid plate purchased from Corning; article number: 3830; batch number: 27519032; white opaque 384-well plate purchased from Corning; article number: 3570; batch number: 26819023; microplate reader purchased from PerkinElmer; model: Envision MLD2105-0020; equipment number 1050369.
(§2) NCI-H358 is a KRAS G12C mutant human non-small cell lung cancer cell line, cultured in 10% FBS RPMI-1640+1% PS culture medium; and A549 is a KRAS G12S mutant human lung adenocarcinoma cell line, cultured in 10% FBS F-12K+1% PS culture medium. Cells at logarithmic growth stage were taken, digested with trypsin-EDTA, then collected and counted. H358 was adjusted to 1.8 E4 cells/mL with 2% FBS RPMI-1640 culture medium, and A549 was adjusted to 8.9 E3 cells/mL with 2% FBS F-12K culture medium; 800 (45 μL) H358 or 400 (45 μL) A549 were inoculated respectively in a 384-well spheroid plate and cultured overnight to establish a 3D cell model. A 3.16-fold gradient concentration stock solution of 1000× compound was prepared with DMSO, and diluted 100-fold to 10× compound stock solution with 2% FBS culture medium. On the second day after cell inoculation, 5 μL of 10× compound stock solution was added to each cell culture well, with a final concentration of 1× and a DMSO content of 0.1%. DMSO was used as experimental control (control), and 2% FBS culture medium was used as blank control (blank). After 5 days of compound cell culture, 25 μL of CellTiter-Glo working solution was added to each well, mixed well at 400 rpm and incubated for 30 minutes. After standing at room temperature for 30 minutes, 40 μL of the mixed solution was transferred to a white opaque 384-well plate, and the luminescence chemiluminescence value was read with a microplate reader. The cell proliferation inhibition rate IR (%)=(RLU control -RLU compound)/(RLU control -RLU blank) x100% was calculated. The gradient dilution concentration of the compound and the corresponding cell proliferation inhibition rate were fitted by Prism 6 four-parameter method, and the IC50 value was calculated. The inhibitory activity of the compounds prepared in the above embodiments of the present disclosure on KRAS G12C mutant NCI-H358 cells was 0.0001 μM to 0.5 μM; the inhibitory activity of some compounds on KRAS G12C mutant NCI-H358 cells was 0.001 μM to 0.1 μM or 0.001 μM to 0.05 μM.

[2] = tested on: A549 cells (KRAS G12S mutant); assay: Cell proliferation inhibition experiment, 3D spheroid, CellTiter-Glo, A549; settings: A549 (KRAS G12S mutant) 3D spheroid, 5 days with compound, CellTiter-Glo, read-out: A549 IC50
Text: as §1, §2

[3] = tested on: KRAS G12C mutant MIA PaCa-2 cells; assay: Cell proliferation inhibition experiment, 3D spheroid, CellTiter-Glo, MIA PaCa-2; settings: 3D cell model in 384-well spheroid plate, 5 days, CellTiter-Glo, read-out: MIA-PaCa2 IC50
Text: Raw materials and instruments: MIA PaCa-2 purchased from ATCC; article number: CRL-1420; batch number: 63143594; DMEM purchased from Gibco; article number: 11995-065; batch number: 2186878; FBS purchased from Gibco; article number: 10099-141; batch number: 2109290CP; Horse Serum purchased from Gibco; article number: 16050-122; batch number: 1818976; PS purchased from Gibco; article number: 15140-122; batch number: 2145451; Trypsin-EDTA purchased from Gibco; article number: 25200-072; batch number: 2085552; CellTiter Glo working solution purchased from Promega; article number: G9683; batch number 398478; DMSO purchased from VWR AMRESCO; article number: 0231-500ML; batch number: 18C0656168; 384-well spheroid plate purchased from Corning; article number: 3830; batch number: 27519032; white opaque 384-well plate purchased from Corning; article number: 3570; batch number: 26819023; microplate reader purchased from PerkinElmer; model: Envision MLD2105-0020; equipment number 1050369.
MIA PaCa-2 is a KRAS G12C mutant human pancreatic cancer cell line, cultured in 10% FBS+2.5% Horse Serum DMEM+1% PS culture medium; cells at logarithmic growth stage were taken, digested with trypsin-EDTA, then collected and counted, and 200 MIA PaCa-2 were inoculated in a 384-well spheroid plate, respectively, and cultured overnight to establish a 3D cell model. A 3.16-fold gradient concentration stock solution of 1000× compound was prepared with DMSO, and diluted 100-fold to 10× compound stock solution with culture medium. On the second day after cell inoculation, 10× compound stock solution was added to each cell culture well, with a final concentration of 1× and a DMSO content of 0.1%. DMSO was used as experimental control (control), and culture medium was used as blank control (blank). After 5 days of compound cell culture, 30 μL of CellTiter-Glo working solution was added to each well, mixed well and incubated for 30 minutes. After standing at room temperature for 30 minutes, 40 μL of the mixed solution was transferred to a white opaque 384-well plate, and the luminescence chemiluminescence value was read with a microplate reader. The cell proliferation inhibition rate IR (%)=(RLU control -RLU compound)/(RLU control−RLU blank)×100% was calculated. The gradient dilution concentration of the compound and the corresponding cell proliferation inhibition rate were fitted by XLFit four-parameter method, and the IC50 value was calculated. The inhibitory activity of the compounds prepared in the above embodiments of the present disclosure on KRAS G12C mutant MIA PaCa-2 cells was 0.0001 μM to 0.5 μM; the inhibitory activity of some compounds on KRAS G12C mutant MIA PaCa-2 cells was 0.001 μM to 0.1 μM or 0.001 μM to 0.05 μM.

[4] = Homo sapiens, MIA PaCa-2, 120 h

SMILES	IC50 [1]	IC50 [2]	IC50 [3]	IC50 ([1]; Homo sapiens, NCI-H358, 120 h)	IC50 ([2]; Homo sapiens, A549, 120 h)	IC50 [3, 4]
C=CC(=O)N1CCN2C(=O)c3c(-c4ccccc4)nc(-c4c(O)cccc4F)c(Cl)c3OC[C@H]2C1 [Z53, (6aR)-8-acryloyl-4-chloro-3-(2-fluoro-6-hydroxyphenyl)-1-phenyl-6,6a,7,8,9,10-hexahydro-12H-pyrazino[2,1-c]pyrido[3,4-f]oxazepin-12-one]	0.146 µM	> 30 µM	0.292 µM			
C=CC(=O)N1CCN2C(=O)c3c(Oc4cccc5c4OC(C)(C)C5)nc(-c4c(O)cccc4F)c(Cl)c3OC[C@H]2C1 [Z42, (6aR)-8-acryloyl-4-chloro-1-((2,2-dimethyl-2,3-dihydrobenzofuran-7-yl)oxy)-3-(2-fluoro-6-hydroxyphenyl)-6,6a,7,8,9,10-hexahydro-12H-pyrazino[2,1-c]pyrido[3,4-f][1,4]oxazepin-12-one]				0.037 µM	6.29 µM	0.087 µM
C=CC(=O)N1CCN2C(=O)c3c(N4CCN5C(=O)CC[C@H]5C4)nc(-c4c(O)cccc4F)c(Cl)c3OC[C@H]2C1 (single isomer, unassigned) [Z317a-1]				0.145 µM	> 30 µM	
C=CC(=O)N1CCN2C(=O)c3c(-c4cn(C)nc4C)nc(-c4c(O)cccc4F)c(Cl)c3OC[C@H]2C1 [Z74, (6aR)-8-acryloyl-4-chloro-1-(1,3-dimethyl-1H-pyrazol-4-yl)-3-(2-fluoro-6-hydroxyphenyl)-6,6a,7,8,9,10-hexahydro-12H-pyrazino[2,1-c]pyrido[3,4-f][1,4]oxazepin-12-one]				0.324 µM	> 30 µM	
C=CC(=O)N1CCN2C(=O)c3c(NC(=O)CC(C)(C)C)nc(-c4c(O)cccc4F)c(Cl)c3OC[C@H]2C1 [Z33, N-((6aR)-8-acryloyl-4-chloro-3-(2-fluoro-6-hydroxyphenyl)-12-oxo-6,6a,7,8,9,10-hexahydro-12H-pyrazino[2,1-c]pyrido[3,4-f][1,4]oxazepin-1-yl)-3,3-dimethylbutanamide]				0.113 µM	> 30 µM	
C=CC(=O)N1CCN2C(=O)c3c(N4CCC(N(C)C)CC4)nc(-c4c(O)cccc4F)c(Cl)c3OC[C@H]2C1 [Z31, (6aR)-8-acryloyl-4-chloro-1-(4-(dimethylamino)piperidin-1-yl)-3-(2-fluoro-6-hydroxyphenyl)-6,6a,7,8,9,10-hexahydro-12H-pyrazino[2,1-c]pyrido[3,4-f][1,4]oxazepin-12-one]				0.176 µM	> 30 µM	
C=CC(=O)N1CCN2C(=O)c3c(OC[C@H]4CCCN4C)nc(-c4c(O)cccc4F)c(Cl)c3OC[C@H]2C1 [Z13, (6aR)-8-acryloyl-4-chloro-3-(2-fluoro-6-hydroxyphenyl)-1-(((R)-1-methylpyrrolidin-2-yl)methoxy)-6,6a,7,8,9,10-hexahydro-12H-pyrazino[2,1-c]pyrido[3,4-f][1,4]oxazepin-12-one]				0.051 µM	> 5 µM	
C=CC(=O)N1CCN2C(=O)c3c(N[C@H]4[C@@H]5CN(C)C[C@@H]54)nc(-c4c(O)cccc4F)c(Cl)c3OC[C@H]2C1 [Z46, (6aR)-8-acryloyl-4-chloro-3-(2-fluoro-6-hydroxyphenyl)-1-(((1R,5S,6s)-3-methyl-3-azabicyclo[3.1.0]hexan-6-yl)amino)-6,6a,7,8,9,10-hexahydro-12H-pyrazino[2,1-c]pyrido[3,4-f][1,4]oxazepin-12-one]	0.46 µM	> 20 µM				
C=CC(=O)N1CCN2C(=O)c3c(N4CCN5C(=O)CC[C@@H]5C4)nc(-c4c(O)cccc4F)c(Cl)c3OC[C@H]2C1 (single isomer, unassigned) [Z317a-2]				0.108 µM	> 30 µM	
C=CC(=O)N1CCN2C(=O)c3c(N4C[C@](C)(O)CC4(C)C)nc(-c4c(O)cccc4F)c(F)c3OC[C@H]2C1 (single isomer, unassigned) [Z256b-2]				0.0447 µM		0.105 µM
C=CC(=O)N1CCN2C(=O)c3c(N4CCS(=O)(=O)CC4)nc(-c4c(O)cccc4F)c(Cl)c3OC[C@H]2C1 [Z26, (6aR)-8-acryloyl-4-chloro-1-(1,1-dioxidothiomorpholino)-3-(2-fluoro-6-hydroxyphenyl)-6,6 a,7,8,9,10-hexahydro-12H-pyrazino[2,1-c]pyrido[3,4-f][1,4]oxazepin-12-one]				0.479 µM	> 30 µM	
C=CC(=O)N1CCN2C(=O)c3c(Nc4c(C)c(Cl)nn4C(C)C)nc(-c4c(O)cccc4F)c(Cl)c3OC[C@H]2C1 [Z16, (6aR)-8-acryloyl-4-chloro-1-((3-chloro-1-isopropyl-4-methyl-1H-pyrazol-5-yl)amino)-3-(2-fluoro-6-hydroxyphenyl)-6,6a,7,8,9,10-hexahydro-12H-pyrazino[2,1-c]pyrido[3,4-f][1,4]oxazepin-12-one]				0.037 µM	> 1 µM	
C=CC(=O)N1CCN2C(=O)c3c(N4C[C@@H](C)O[C@@H](C)C4)nc(-c4c(O)cccc4F)c(Cl)c3OC[C@H]2C1 [Z247, (6aR)-8-acryloyl-1-((2S,6R)-2,6-dimethylmorpholino)-4-chloro-3-(2-fluoro-6-hydroxyphenyl)-6,6a,7,8,9,10-hexahydro-12H-pyrazino[2,1-c]pyrido[3,4-f][1,4]oxazepin-12-one]				0.041 µM		0.047 µM
